Data published in patent publication EP1676574A2, “Methods for promoting survival of transplanted tissues and cells” (Johnson & Johnson Vision Care, Inc., priority 2004, dated 2006).

Key:
[1] = tested on: Human mesenchymal stem cells (MSC); test: Plasma clotting assay with human mesenchymal stem cells; assay type: cell-based; details: p38 inhibitor 10 µM pre-culture 10 days; anti-TF antibody 30 minutes pre-binding; untreated cells 1042.0
Method: (§1) In the previous example, cells were stimulated overnight to produce TF by LPS induction. Inhibition of this process was achieved by addition of p38 inhibitor compound 1, evaluated by plasma clotting assay. In this example, two types of cells were pre-cultured with the p38 inhibitors compound 1 and compound 2 for 10 days to evaluate the effect of p38 MAPK inhibitors on coagulation. Cells were separately treated using a final concentration of 10 µM of each p38 inhibitor. Parallel treatments of DMSO vehicle were included as a control. Media, containing the above compounds were replenished during culture at intervals of every 2 days.
(§2) Human mesenchymal stem cells (MSC) were isolated from whole bone marrow purchased from Cambrex BioScience Walkersville, Inc. Cells were obtained from 10-ml aspirates taken from the iliac crest of normal human donors (age about 20 years). Mononuclear cells were isolated by gradient centrifugation. […]
(§3) The plasma clotting assay was performed as described in Example 1. Cells were lightly trypsinized from culture on the day of assay, washed, counted, and viability was determined before adjusting to 10^6 cells/ml in HBSS. […] Coagulation was monitored at room temperature in a kinetic plate reader using 15 second interval readings at 405 nm over 60 to 120 minutes. A final reading of T1/2 maximal clotting time was obtained for each sample condition. […]

[2] = tested on: Peripheral blood mononuclear cells (PBMCs); test: Plasma clotting assay with PBMCs; assay type: cell-based, human; details: p38 inhibitor 10 µM pre-incubated 18 to 24 hours, anti-TF antibody added 30 minutes prior to clotting, OD405
Method: Peripheral venous blood was obtained by consent from normal, healthy volunteers and mononuclear cells were isolated using Histopaque 1077 (Sigma) density gradient centrifugation. Following three washes with RPMI (Invitrogen) supplemented with 1% fetal calf serum (FCS), cells were counted and viability was assessed using a Guava PCA-96 instrument (Guava Technologies, Hayward, CA). Cells were resuspended to 1.67 x 10^6 cells/mL in RPMI media containing 10% FCS, and 4 mL/well were added to a 6-well dish (Corning-Costar). Lipopolysaccharide (LPS) was diluted into cell cultures to a final concentration of 10 ng/ml. p38 inhibitor compound 1 was added to cell cultures at a final concentration of 10 µM. An equivalent dilution of DMSO was added to untreated cultures. The following four assay conditions were: (+) LPS (+) p38 inhibitor, (+) LPS (-) p38 inhibitor, (-) LPS (+) p38 inhibitor, and (-) LPS (-) p38 inhibitor. […]
Plasma Clotting Assay. […] Clotting was monitored at 15 second intervals for 2 hours at room temperature using a Spectra MAX 190 (Molecular Devices, Sunnyvale, CA) at a wavelength of 405 nm. […]
PBMCs ([…] in 100 µl of HBSS) were pre-incubated with 25 µl of anti-TF antibody compound 3 (10 µg/ml) for 30 minutes at room temperature in the same 96-well plate as the untreated cells above. […] CaCl2 and pooled human plasma were added and the clotting reaction was monitored as described above.

[3] = tested on: isolated mouse islets; test: Plasma clotting assay with isolated mouse islets; assay type: cell-based, Balb/c mice; details: 10 µM p38 inhibitor, islets cultured 72 hours; 50 islets/well; vehicle control 388.6 (compound 2 experiment), 488.9 (second experiment)
Method: Pancreata were harvested from Balb/c mice via cannulation of the common bile duct and perfusion with a liberase solution (Roche). Pancreata were digested at 37°C for 15 minutes followed by discontinuous ficoll gradient centrifugation to remove acinar and ductal tissue.
Islets of similar size were collected and plated in 3 ml of islet growth medium in a 6-well culture dish (300 islets per well) with or without p38 MAPK inhibitors (10 µM compound 1 or compound 2). Vehicle control was an equivalent dilution of DMSO. Islets were cultured at 37°C in 5% CO2 for 72 hours. The three treatment conditions were: vehicle control, (+) p38 inhibitor compound 1, and (+)p38 inhibitor compound 2.
Plasma Clotting Assay. […] Clotting was monitored at 15 second intervals for 2 hours at room temperature in a Spectra MAX 190 (Molecular Devices, Sunnyvale, CA) at 405nm. Times to half maximum OD were calculated as 388.6 seconds for the vehicle control and 596.9 seconds for cells treated with p38 inhibitor compound 2. […] In a second experiment, the time to half maximum was calculated as 488.9 seconds for the vehicle control and 974.7 seconds for treated islets. […]

[4] = tested on: J82 cells; test: Plasma clotting assay with J82 bladder carcinoma cells; assay type: cell-based, human; details: p38 inhibitor 10 µM pre-culture 10 days; anti-TF antibody 30 minutes pre-binding; untreated cells 155.01
Method: as §1, §2, §3

SMILES: OCCC#Cc1nc(-c2ccc(F)cc2)c(-c2ccncc2)n1CCCc1ccccc1 [compound 1, 4-[4-(4-fluorophenyl)-1-(3-phenylpropyl)-5-(4-pyridinyl)-1H-imidazol-2-yl]-3-butyn-1-ol]
- time to half the maximum OD [1]: 1882.2 s
- time to half the maximum OD ([2]; (+) LPS 10 ng/ml, (+) LPS cells without inhibitor 928.6): 1837.3 s
- time to half the maximum OD ([2]; (-) LPS, untreated cells 2946.4): 3289.0 s
- Times to half maximum OD [3]: 974.7 s
- times to reach ½ maximal OD [4]: 160.9 s
